# Reference: US6504005B1, “Long-acting drugs and pharmaceutical compositions comprising them” (Yeda Research and Development Co. Ltd., priority 1996, dated 2003)
# Several values for one entry are separate records, joined by “and”; a condition that tells them apart may be missing. Equal entries are not always repeated. Where two headings read alike, the source gives them in different places.
# Key:
# intact rat adipocytes = format: cell-based; settings: for Activity following incubation at pH 8.5, 37° C. (%), 9 hrs: 9 hrs at pH 8.5, 37° C.; for Activity following incubation at pH 8.5, 37° C. (%), 20 hrs: 20 hrs at pH 8.5, 37° C.; for Activity following incubation at pH 8.5, 37° C. (%), 45 hrs: 45 hrs at pH 8.5, 37° C.
# Protocol: (iii) Lipogenesis (Incorporation of Labeled Glucose into the Lipids of Intact Adipocytes) Rat adipocytes were prepared essentially by the method of Rodbell, 1964. The fat pads of male Wistar rats were cut into small pieces with scissors and suspended in 3 ml of KRB buffer containing NaCl, 110 mM; NaHCO3, 25 mM; Kcl, 5 mM; […] CaCl2, 1.3 mM; […] Five milliliters of buffer was then added, and the cells were passed through a mesh screen. The cells were then allowed to stand for several minutes in a 15 ml plastic test tube at room temperature, floating, and the buffer underneath was removed. This procedure (suspension, floating, and removal of buffer underneath) was repeated three times. […] Lipogenesis was terminated by adding toluene-based scintillation fluid (1.0 ml per vial) and the radioactivity in extracted lipids was counted (Moody et al., 1974).
# normal rats = assay: Single intraperitoneal administration to normal rats, blood glucose levels; format: in vivo; settings: single i.p. injection, 3 mg/rat
# Protocol: This assay reflects the post-subcutaneous long-acting feature of insulin (or insulin derivatives) within the circulation. Normal rats received a single intraperitoneal injection of native insulin, NPH-insulin and (Fmoc)2-insulin (3 mg/rat), and their blood glucose levels were monitored over a period of three days.
# Blood glucose levels were followed for two days.
# [1] = not given; remark: listed apart in the source
# [2] = Solubility and appearance in aqueous buffer (pH 7.4)
# [3] = biological target: insulin receptor tyrosine kinase (Rattus norvegicus, UniProt P15127); assay: Insulin receptor tyrosine kinase activity, [poly(Glu4Tyr)] phosphorylating assay (cell-free); settings: for Biological potency (%): of native insulin potency, before incubation, [poly(Glu4Tyr)] phosphorylating assay; for Biological potency following incubation (2 days, 37° C., pH 8.5): after 2 days
# insulin receptor tyrosine kinase, sequence (P15127 27-759 limits assumed): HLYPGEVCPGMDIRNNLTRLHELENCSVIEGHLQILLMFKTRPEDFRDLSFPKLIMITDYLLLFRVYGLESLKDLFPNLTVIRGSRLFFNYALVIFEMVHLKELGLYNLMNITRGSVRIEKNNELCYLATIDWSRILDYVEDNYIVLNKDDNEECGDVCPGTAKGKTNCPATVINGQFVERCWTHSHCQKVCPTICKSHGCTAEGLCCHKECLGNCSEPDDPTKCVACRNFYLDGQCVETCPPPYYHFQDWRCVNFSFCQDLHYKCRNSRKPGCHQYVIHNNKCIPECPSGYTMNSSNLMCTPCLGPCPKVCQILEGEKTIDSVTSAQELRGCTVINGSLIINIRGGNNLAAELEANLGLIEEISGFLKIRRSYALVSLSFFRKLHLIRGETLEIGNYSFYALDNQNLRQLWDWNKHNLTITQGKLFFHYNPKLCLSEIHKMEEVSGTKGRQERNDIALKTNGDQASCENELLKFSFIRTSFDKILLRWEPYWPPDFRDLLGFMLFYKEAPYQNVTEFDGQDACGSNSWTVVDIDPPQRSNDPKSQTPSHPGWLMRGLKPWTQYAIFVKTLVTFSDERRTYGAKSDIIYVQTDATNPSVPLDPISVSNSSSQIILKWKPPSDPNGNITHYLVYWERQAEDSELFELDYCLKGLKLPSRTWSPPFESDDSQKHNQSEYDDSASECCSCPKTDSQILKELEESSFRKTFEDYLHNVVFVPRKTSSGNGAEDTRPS
# insulin receptor tyrosine kinase, sequence (P15127 764-1383 partner limits assumed): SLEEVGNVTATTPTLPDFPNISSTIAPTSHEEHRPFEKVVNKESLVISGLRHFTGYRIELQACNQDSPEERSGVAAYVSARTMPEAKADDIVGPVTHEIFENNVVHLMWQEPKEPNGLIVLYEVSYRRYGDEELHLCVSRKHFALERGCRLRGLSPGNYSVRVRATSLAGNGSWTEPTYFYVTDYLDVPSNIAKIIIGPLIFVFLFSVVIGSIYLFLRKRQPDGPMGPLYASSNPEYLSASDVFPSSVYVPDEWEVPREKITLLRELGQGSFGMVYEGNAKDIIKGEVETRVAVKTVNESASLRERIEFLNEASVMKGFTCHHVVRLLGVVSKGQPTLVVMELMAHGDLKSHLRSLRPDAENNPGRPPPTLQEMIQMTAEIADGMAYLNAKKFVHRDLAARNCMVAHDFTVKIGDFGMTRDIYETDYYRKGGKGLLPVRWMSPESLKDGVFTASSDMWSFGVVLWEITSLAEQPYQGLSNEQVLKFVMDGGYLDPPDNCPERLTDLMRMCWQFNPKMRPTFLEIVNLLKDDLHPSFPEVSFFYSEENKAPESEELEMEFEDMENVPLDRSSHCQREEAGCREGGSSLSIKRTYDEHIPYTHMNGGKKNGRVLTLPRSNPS
# Protocol: Briefly, the liver was homogenized in the presence of proteinase inhibitors, solubilized with 1% Triton X-100, and centrifuged. The supernatant was allowed to pass through a wheat-germ agglutinin (WGA)-agarose column (Sigma). Adsorbed insulin receptor portion was eluted with 0.3M N-acetyl-D-glucose amine in 50 mM HEPES buffer, pH 7.4, containing 0.1% Triton X-100, 10% glycerol, and 0.15M NaCl.
# (iv) Receptor Tyrosine Kinase Activity Measurement
# In this assay insulin activates its own receptor to phosphorylate a random copolymer containing L-glutamic acid and L-tyrosine at 4:1 molar ratio [Poly(Glu4Tyr)]SEQ ID NO:1. The standard enzyme assay mixture (final volume 60 μl in 50 mM Hepes, pH 7.4-0.1% Triton X-100) contained WGA purified insulin receptor (5μg protein), 20 mM MgCl2, 2 mM MnCl2, 100 μM ATP and varying concentrations (from 1 ng/ml to 10 mg/ml) of insulin or insulin derivative. Following a 30 min preincubation at 22° C., the reaction was initiated by adding Poly(Glu4Tyr) SEQ ID NO:1 (final concentration 0.7 mg/ml), it proceeded for 20 min at 22° C. and was terminated by adding EDTA (20 mM). Phosphotyrosine content in PolyGlu4Tyr was quantitated by a radio-immunoassay procedure using specific monoclonal antibodies to phosphotyrosine (final dilution 1: 100,000) and ^125I-BSA-phosphotyrosine conjugate.
# E. coli = format: cell-based; settings: for IC50: read-out: Concentration inhibiting 50% of bacterial growth; for Antimicrobial potency (%): relative to PMXB control
# Protocol: At the indicated time points aliquots were withdrawn and analyzed for their potencies to arrest growth of E. coli, and bacterial growth was then evaluated by measuring turbidity at 700 nm.
# [4] = format: physicochemical
# Protocol: (i.e. at physiological pH and body temperature). At the indicated time points aliquots were withdrawn for determining the biological potency relative to native insulin. Biological activities were evaluated by Insulin receptor tyrosine kinase activation (a cell free assay as described in Biological Procedures above, section (iv)) and by stimulation of lipogenesis in intact rat adipocytes as described in Biological Procedures, […].
# STZ-diabetic rats = assay: Single subcutaneous administration to STZ-diabetic rats (blood glucose, daily weight gain)
# Protocol: Diabetes was induced by a single intravenous injection of a freshly prepared solution of streptozotocin (55 mg/kg body weight) in 0.1M citrate buffer (pH 4.5) according to Meyerovitch et al., 1987.
# Blood glucose levels and daily weight gains were followed over a period of seven days.
# Group C (n=5) received the vehicle only (2.0 ml of 20% DMSO). Blood glucose levels were determined daily.
# hGH receptor = assay: Displacement of iodinated hGH (receptor binding assay)
# Protocol: Incubation of Fmoc-hGH at pH 8.5 (37° C.) for about 6 days or at pH 10.5 (37° C.) for four days yielded fully active, native hGH, as judged by HPLC analysis and by receptor binding assays.
# [5] = Conversion of Fmoc-hGH to native hGH upon incubation (analytical HPLC); format: physicochemical; settings: pH 8.5, 37° C.
# Protocol: Conversion of Fmoc-hGH to native hGH was evaluated by the increase in peak area corresponding to native hGH.
# [6] = cited from earlier work
# chymotrypsin and trypsin = settings: pH 7.4
# Protocol: Chymotrypsin and trypsin (0.5% w/w, of each) was then added. At the indicated time points aliquots were withdrawn and subjected to analytical HPLC procedure.
# Staphylococcus aureus = settings: relative to cephalexin control
# Protocol: At the indicated time points, aliquots were withdrawn and analyzed for their potency to arrest growth of Staphylococcus aureus. Bacterial growth was then evaluated by increased turbidity measured spectroscopically at 700 nm.
compound,measurement,setting,value
"(Sulfmoc)2-insulin: insulin carrying two (2-sulfo)Fmoc groups on amino groups, water soluble",Biologically active (%),"intact rat adipocytes; before incubation, assay not given",0.5%
same,t½ of return to fully-active native insulin (increase in biological potency),intact rat adipocytes; pH 8.5,4-6 hours
same,Period of hypoglycemia / reduced blood glucose,normal rats,24 h
same,"Recovery from hypoglycemia, t½",normal rats,14 h
same,"Time to full reversion / hydrolysis to the native hormone, pH 7.4","37° C., pH 7.4",10 days
same,"t½ of reversion, pH 7.4","buffer, pH 7.4",6 days
same,"t½ of reversion, pH 8.5","buffer, pH 8.5",12-15 hours
same,Increase in rate of hydrolysis versus Fmoc moiety,sulfonic acid group at position 2,2-3 fold
Gly^A1-N-(Fmoc)1-insulin [Gly^A1-N-Fmoc-insulin],"Activity following incubation at pH 8.5, 37° C. (%), 9 hrs",intact rat adipocytes,50%
same,"Activity following incubation at pH 8.5, 37° C. (%), 20 hrs",intact rat adipocytes,100%
same,"Solubility in aqueous buffer (pH 7.4, mg/ml)",[1],˜3 mg/ml
same,Appearance in aqueous buffer (pH 7.4),[2],nearly clear
same,Biological potency (%),[3],40 ± 2%
"Polymyxin-B [native PMXB, reference compound]",IC50,"E. coli; 3 d, 37° C., pH 7.4",55 nM
same,Antimicrobial potency (%),"E. coli; 3 d, 37° C., pH 7.4",100%
same,IC50,"E. coli; 3 d, 37° C., pH 8.5",100 nM
same,Antimicrobial potency (%),"E. coli; 3 d, 37° C., pH 8.5",100%
same,IC50,"E. coli; 6 d, 37° C., pH 7.4",228 nM
same,Antimicrobial potency (%),"E. coli; 6 d, 37° C., pH 7.4",100%
same,IC50,"E. coli; 6 d, 37° C., pH 8.5",200 nM
same,Antimicrobial potency (%),"E. coli; 6 d, 37° C., pH 8.5",100%
same,IC50,E. coli; no treatment,50 nM
same,Antimicrobial potency (%),E. coli; no treatment,100%
Phe^B1-N-(Fmoc)1-insulin,"Solubility in aqueous buffer (pH 7.4, mg/ml)",[1],˜3 mg/ml
same,Appearance in aqueous buffer (pH 7.4),[2],nearly clear
same,Biological potency (%),[3],76 ± 4%
"Phe^B1, Lys^B29-N-(Fmoc)2-insulin","Activity following incubation at pH 8.5, 37° C. (%), 9 hrs",intact rat adipocytes,10%
same,"Activity following incubation at pH 8.5, 37° C. (%), 20 hrs",intact rat adipocytes,20%
same,"Activity following incubation at pH 8.5, 37° C. (%), 45 hrs",intact rat adipocytes,98%
same,Lag period of activation,"[4]; pH 7.4, 37° C.",not seen
same,Start of conversion to the native hormone after incubation,"[4]; pH 7.4, 37° C.",starts shortly (within hours) after incubation
same,Period of hypoglycemia / reduced blood glucose,normal rats,about 48 hours
same,"Recovery from hypoglycemia, t½",normal rats,26 h
same,"Solubility in aqueous buffer (pH 7.4, mg/ml)",[1],˜2 mg/ml
same,Appearance in aqueous buffer (pH 7.4),[2],cloudy
same,Period of normoglycemia,"STZ-diabetic rats; STZ rats, single s.c. 3 mg/rat",4 days
same,Daily weight gain gram/rat (over the first three days),"STZ-diabetic rats; STZ rats, single s.c. 3 mg/rat, first three days",11.5 ± 1.3 gram/rat
same,Effectiveness in lowering blood glucose levels,"STZ-diabetic rats; STZ rats, single s.c. administration",as effective as the commercially available (insoluble) long-acting preparation
same,Biological potency (%),[3]; Lys^B29-N-(Fmoc)2 insulin,9%
same,Biological potency (%),"[3]; listed as N-(Fmoc)2-insulin Phe^B1, Lys^B29",9 ± 2%
"Gly^A1, Phe^B1-N-(Fmoc)2-insulin","Activity following incubation at pH 8.5, 37° C. (%), 9 hrs",intact rat adipocytes,18%
same,"Activity following incubation at pH 8.5, 37° C. (%), 20 hrs",intact rat adipocytes,40%
same,"Activity following incubation at pH 8.5, 37° C. (%), 45 hrs",intact rat adipocytes,100%
same,"Solubility in aqueous buffer (pH 7.4, mg/ml)",[1],˜2 mg/ml
same,Appearance in aqueous buffer (pH 7.4),[2],cloudy
same,"Biological potency following incubation (2 days, 37° C., pH 8.5)",[3],97
same,Biological potency (%),[3],3 ± 1%
Fmoc-hGH: human growth hormone modified with Fmoc-OSu,Ability to displace iodinated hormone (%),"hGH receptor; after 1 day, pH 10.5, 37° C.",25%
same,Ability to displace iodinated hormone (%),"hGH receptor; after 4 days, pH 10.5, 37° C.",100%
same,Ability to displace iodinated hormone (%),hGH receptor; no treatment,15%
same,"Incubation time yielding fully active, native hGH, pH 10.5","hGH receptor; pH 10.5, 37° C.",four days
same,Conversion to hGH (%),[5]; 1 day,23%
same,Conversion to hGH (%),[5]; 2 days,62%
same,Conversion to hGH (%),[5]; 6 days,100%
same,"Incubation time yielding fully active, native hGH, pH 8.5",[5],about 6 days
hGH: native human growth hormone (Biotechnology General),Ability to displace iodinated hormone (%),hGH receptor; no treatment,100%
same,Stability under the conditions applied to Fmoc-hGH,"hGH receptor; pH 10.5, 37° C., 4 days","^(1)Displacement of iodinated hGH was carried out according to Gertler et al., 1984. Native hGH was fully stable under the conditions applied to Fmoc-hGH (pH 10.5, 37° C., 4 days)."
di-9-(fluorenylmethoxycarbonyl)polymyxin B [(Fmoc)2-PMBX],IC50,"E. coli; 3 d, 37° C., pH 7.4",227 nM and 350 nM
same,IC50,"E. coli; 3 d, 37° C., pH 8.5",125 nM
same,Antimicrobial potency (%),"E. coli; 3 d, 37° C., pH 8.5",80%
same,IC50,"E. coli; 6 d, 37° C., pH 8.5",200 nM
same,Antimicrobial potency (%),"E. coli; 6 d, 37° C., pH 8.5",100%
same,"t½ of hydrolysis back to active PMXB, pH 7.4","E. coli; buffer, pH 7.4",~1 days
same,"t½ of hydrolysis back to active PMXB, pH 8.5","E. coli; buffer, pH 8.5",~3 days
same,IC50,E. coli; no treatment,5000 nM
same,Antimicrobial potency (%),E. coli; no treatment,~1%
Insulin lispro: human insulin analog with the sequence at B28 and B29 reversed,Potency versus human insulin,[6]; in vivo,equipotent to human insulin
same,Absorption from subcutaneous injection sites,[6]; versus human insulin,absorbed more quickly
"Gly^A1, Lys^B29-N-(Fmoc)2-insulin","Activity following incubation at pH 8.5, 37° C. (%), 9 hrs",intact rat adipocytes,10%
same,"Activity following incubation at pH 8.5, 37° C. (%), 20 hrs",intact rat adipocytes,20%
same,"Activity following incubation at pH 8.5, 37° C. (%), 45 hrs",intact rat adipocytes,97%
same,"Solubility in aqueous buffer (pH 7.4, mg/ml)",[1],˜2 mg/ml
same,Appearance in aqueous buffer (pH 7.4),[2],cloudy
same,"Biological potency following incubation (2 days, 37° C., pH 8.5)",[3],93
same,Biological potency (%),[3],2 ± 1%
"Gly^A1, Phe^B1, Lys^B29-N-(Fmoc)3-insulin",Lag period of activation,"[4]; pH 7.4, 37° C.",six day lag period
same,"Solubility in aqueous buffer (pH 7.4, mg/ml)",[1],˜0.2 mg/ml
same,Resistance to proteolysis,chymotrypsin and trypsin,highly resistant to proteolysis
same,Appearance in aqueous buffer (pH 7.4),[2],very cloudy
same,Delayed onset of antidiabetic action,"STZ-diabetic rats; STZ rats, single s.c. 1 mg",approximately two days
same,Duration of antidiabetic action,"STZ-diabetic rats; STZ rats, single s.c. 1 mg",four days
same,Daily weight gain,"STZ-diabetic rats; STZ rats, single s.c. 1 mg, followed seven days",1.43±0.14 g/rat/day
same,Circulating glucose level lower than in native insulin group,"STZ-diabetic rats; single s.c. 1 mg, day two up to day six",90 to 110 mg/dL
same,Biological potency (%),"[3]; listed as N-(Fmoc)3-insulin Gly^A1, Lys^B29, Phe^B1",<1%
same,Biological potency (%),[3]; listed as tri-N-Fmoc-insulin,< 1%
"CC1=C(C(=O)O)N2C(=O)[C@@H](NC(=O)[C@H](N)c3ccccc3)[C@H]2SC1 [native cephalexin, 7-(D-α-aminophenylacetamido)desacetoxycephalosporanic acid, reference compound]",Antimicrobial potency (%),"Staphylococcus aureus; after 1 day at pH 7.4, 37° C.",100%
same,Antimicrobial potency (%),"Staphylococcus aureus; after 3 days at pH 7.4, 37° C.",100%
same,Antimicrobial potency (%),"Staphylococcus aureus; after 6 days at pH 7.4, 37° C.",100%
same,Antimicrobial potency (%),Staphylococcus aureus; no incubation,100%
Lys^B29-N-(Fmoc)1-insulin,t½ of activation (half maximal activation),"[4]; buffer, pH 7.4",120 h
same,"Solubility in aqueous buffer (pH 7.4, mg/ml)",[1],˜3 mg/ml
same,Appearance in aqueous buffer (pH 7.4),[2],nearly clear
same,"Biological potency following incubation (2 days, 37° C., pH 8.5)",[3],94
same,Biological potency (%),[3],78 ± 4%
